Key:
[1] = tested on: HIV coding for mutant reverse transcriptase Y181C; assay: ELISA (p24) assay of HIV replication in C8166 cell culture, Y181C virus; assay type: cell-based, HIV-1; settings: Human immunodeficiency virus 1, C8166, 72 h, read-out: EC50 Y181C
Description: (§1) Compounds of the invention were tested for their ability to inhibit HIV replication in cell culture in a 96-well plate assay. Complete RPMI 1640, consisting of RPMI 1640+10% fetal bovine serum, 10 μg/ml gentamycin and 10 μM β-mercaptoethanol was used for dilution of the compound as well as cell growth medium. The T lymphocyte cell line C8166 was infected at a multiplicity of infection of 0.001 with viruses coding for wild-type and mutant reverse transcriptase. Cells were then incubated for three days in the presence of serial dilutions of the compounds of the invention. The supernatant was pooled from eight replica wells and the concentration of extracellular p24 was determined using a commercially available HIV-1 p24 antigen assay kit (Beckman-Coulter®). The level of inhibition (% inhibition) was calculated with the following equation: [formula]

[2] = tested on: HIV coding for mutant reverse transcriptase K103N/V108I; assay: ELISA (p24) assay of HIV replication in C8166 cell culture, K103N/V108I virus; assay type: cell-based, HIV-1; settings: Human immunodeficiency virus 1, C8166, 72 h, read-out: EC50 K103N/V108I
Description: as §1

Compound	EC50 [1]	EC50 [2]
CCN1c2ncc(CCOc3cc[n+]([O-])c4ccccc34)cc2C(=O)N(C)c2ccc(F)nc21 [compound 11, 5,11-Dihydro-11-ethyl-2-fluoro-5-methyl-8-{2-{(1-oxido-4-quinolinyl)oxy}-ethyl}-6H-dipyrido[3,2-b:2′,3′-e][1,4]diazepin-6-one]	4.1 nM	3.9 nM
CCN1c2ncc(CCOc3cc[n+]([O-])c4ccccc34)cc2C(=O)N(C)c2ccc(Cl)nc21 [compound 17, 2-Chloro-5,11-dihydro-11-ethyl-5-methyl-8-{2-{(1-oxido-4-quinolinyl)oxy}-ethyl}-6H-dipyrido[3,2-b:2′,3′-e][1,4]diazepin-6-one]	2.8 nM	2.7 nM
CCN1c2ncc(CCOc3cc[n+]([O-])c4ccccc34)cc2C(=O)N(C)c2cccnc21 [compound 21, 5,11-Dihydro-11-ethyl-5-methyl-8-{2-{(1-oxido-4-quinolinyl)oxy}ethyl}-6H-dipyrido[3,2-b:2′,3′-e][1,4]diazepin-6-one]	4.8 nM	5 nM

Reference: patent US20020028807A1, “Non-nucleoside reverse transcriptase inhibitors” (priority 2000, published 2002)
